Assays:
Assay type in all cases: cell-based, Human
[1] = test system: kinase-addicted cancer cell lines; assay: RTK ligand matrix screen, Syto 60 cell viability
Experimental: (§1) Cell viability was assessed using the nucleic acid stain Syto 60 (Invitrogen). Cells (3000-5000 per well) were seeded into 96 well plates and allowed to adhere overnight. The next day, cells were treated with (or without) 50 ng/mL RTK ligand and concomitantly exposed to an increasing concentration range of the relevant kinase inhibitor. Following 72 hours drug exposure, cells were fixed in 4% formaldehyde, stained with Syto 60 and cell number was assessed using an Odyssey scanner (Li-Cor). Cell viability was calculated by dividing the fluorescence obtained from the drug-treated cells by the fluorescence obtained from the control (no drug) treated cells.
Cell lines. Human cancer cell lines were obtained and tested for sensitivity using an automated platform as previously described (Johannessen, C. M. et al. COT drives resistance to RAF inhibition through MAP kinase pathway reactivation. Nature 468, 968-972, doi:10.1038/nature09627 (2010)). Cell lines were maintained at 37° C. in a humidified atmosphere at 5% CO2 and grown in RPMI 1640 or DMEM/F12 growth media (GIBCO) supplemented with 10% fetal bovine serum (GIBCO), 50 units/mL penicillin and 50 μg/mL streptomycin (GIBCO).
Using 41 different human tumor-derived cell lines with previously defined kinase dependency^7-9, we undertook a “matrix analysis” to examine the effects of 6 different RTK ligands (HGF, EGF, FGF, PDGF, NRG1, IGF)—known to be widely expressed in cancer cells and tumor stroma^10—on drug response. Specifically, we quantified the effect of exposing these cancer cell lines (e.g., AU565 (HER2 amp)) to each ligand on the IC50 for a kinase inhibitor (e.g., lapatinib) that otherwise potently suppresses their growth within 72 hours (FIG. 1A). Nearly all of the kinase-dependent cancer cell lines tested, which included cells derived from multiple tissue types and with distinct kinase dependencies (EGFR, HER2, BRAF, MET, ALK, PDGFR, and FGFR), could be rescued from drug-induced growth inhibition by one or more RTK ligands, highlighting the potentially broad contribution of these ligands to the response to selective kinase inhibitors in kinase-addicted tumor cells (FIG. 1B).

[2] = test system: HER2-amplified breast cancer cell lines; assay: Syto 60 cell viability, ligand rescue from lapatinib; details: 50 ng/mL ligand, 72 h
Experimental: as §1
The ability of HGF to rescue 3 of 9 tested HER2-amplified breast cancer cell lines from growth inhibition by the HER2 kinase inhibitor lapatinib was also unexpected (FIG. 3A). These 3 cell lines all express MET, and expression was well correlated with the ability of HGF to attenuate lapatinib response (FIG. 3B).

[3] = test system: BRAF mutant melanoma cell lines; assay: Syto 60 cell viability, HGF rescue from PLX[…]; details: additional twelve cell lines
Experimental: Cells were treated twice weekly for the indicated times. […] Error bars represent mean+/−s.e.m.
as §1, with “Following 72 hours drug exposure, cells were fixed in 4% formaldehyde, stained with Syto 60 and cell number was assessed using an Odyssey scanner (Li-Cor).” left out

[4] = test system: H3122 EML4-ALK translocated NSCLC cancer cell line; assay: Cell viability assay with TAE684 or crizotinib and HGF; details: TAE684, 50 ng/mL HGF, 72 h
Experimental: Error bars represent mean+/−s.e.m.
as §1, with “Following 72 hours drug exposure, cells were fixed in 4% formaldehyde, stained with Syto 60 and cell number was assessed using an Odyssey scanner (Li-Cor).” left out

[5] = test system: AKT and ERK phosphorylation; assay: Immunoblots of survival pathway re-activation
Experimental: FIGS. 2A-2C: pro-survival pathway re-activation correlated with RTK ligand rescue. FIG. 2A, Immunoblots showing the effect of acute RTK ligand treatment (50 ng/mL) on AKT and ERK phosphorylation following kinase inhibition (1 μM, 2 h). RTK ligand rescue is indicated, grey squares indicates complete rescue and black squares indicates partial rescue as determined by the initial screen (FIG. 1B). […] Cells were co-treated with 50 ng/mL RTK ligand in the presence of the appropriate secondary kinase inhibitor (0.5 μM) as indicated. […] Error bars represent mean+/−s.e.m. FIG. 2C, Immunoblots showing the effect of acute kinase inhibition (1 μM) in the presence and absence of RTK ligands (50 ng/mL, 2 h) on AKT and ERK phosphorylation. Cells were co-treated with secondary kinase inhibitor (0.5 μM) as appropriate.
Cell lysates were harvested using Nonidet-P40 lysis buffer, supplemented with Halt protease and phosphatase inhibitor cocktail (Thermo Scientific) and immunodetection of proteins was carried out using standard protocols. The phospho-HER2 (Y1248; #2247), HER2 (#2242), phospho-HER3 (Y1289; #4791), phospho-MET (Y1234/5; #3126), PDGFRα (#5241), phospho-FRS2α (Y196; #3864), IGF-1Rβ (#3027), phospho-ALK (Y1604; #3341), AKT (#9272), phospho-ERK (T202/Y204; #9101), ERK (#9102), GAPDH (#2118) and β-Tubulin (#2146) antibodies were purchased from Cell Signaling Technologies. Antibodies to HER3 (SC-285), MET (SC-10), phospho-PDGFRα (SC-12911), FRS2α (SC-8318), FGFR1 (SC-7945), FGFR2 (SC-122), FGFR3 (SC-13121) and ALK (SC-25447) were purchased from Santa Cruz Biotechnologies. Phospho-AKT (S473; #44-621G) antibody was purchased from Invitrogen. Phospho-EGFR (Y1068; ab5644) antibody was purchased from Abeam. EGFR (#610017) antibody was purchased from BD Biosciences. PARP (#14-6666-92) antibody was purchased from eBioscience. Densitometry was carried out using ImageJ software.

[6] = test system: H358 EGF-like ligand-driven NSCLC cells; assay: Syto 60 long-term staining with erlotinib and HGF; details: erlotinib 5 μM, HGF 50 ng/mL, every 3 days for 9 days
Experimental: Cells were co-treated with 50 ng/mL HGF. Error bars represent mean+/−s.e.m. […] FIG. 8C, Syto 60 staining of H2228 EML4-ALK translocated NSCLC cells treated with TAE684 (2 μM) in the presence and absence of HGF (50 ng/mL) as indicated. Cells were treated every 3 days for 9 days. FIG. 8D, Syto 60 staining of H358 EGF-like ligand-driven NSCLC cells treated with Erlotinib (5 μM) in the presence and absence of HGF (50 ng/mL) as indicated. Cells were treated every 3 days for 9 days.

Substance: HGF: recombinant human RTK ligand (MET ligand) purchased from Peprotech
- effect of RTK ligand on conferring drug resistance to kinase inhibitors ([1]; 50 ng/mL RTK ligand, 72 h, 41 cell lines): most broadly active ligands
- effect of HGF on response to PLX[…] ([1]; BRAF mutant PLX[…]-sensitive melanoma and colorectal cell lines): significantly attenuated the response
- rescue despite activation of receptor and a downstream survival effector ([1]; H2228 and H358 cells with HGF, COLO-201 cells with NRG1): not sufficient to rescue cells from kinase inhibition
- number of HER2-amplified breast cancer cell lines rescued from lapatinib [2]: 3 of 9
- number of additional BRAF mutant melanoma lines with HGF-attenuated PLX[…] sensitivity [3]: 5 of the 12
- rescue from ALK inhibition by HGF [4]: efficiently rescued from ALK inhibition
- PI3K/MAPK pathway re-activation by RTK ligand in presence of kinase inhibitor ([5]; 50 ng/mL ligand, kinase inhibitor 1 μM, 2 h): re-activated both PI3K and MAPK pathways
- re-activation of PI3K and MAPK signalling in HER2 amplified cell lines ([5]; AU565, HCC1954 (MET positive), BT474 (MET negative), lapatinib 1 μM, HGF 50 ng/mL, 2 h): re-activated PI3K and MAPK signalling pathways specifically in MET-positive, but not in MET-negative cells
- persistence of redundant RTK activation and downstream survival signalling ([5]; AU565 cells, lapatinib 1 μM and HGF 50 ng/mL): at least 48 hours
- re-activation of AKT and ERK activity in presence of TAE684 ([5]; H2228 cells): able to re-activate AKT and ERK activity
- ERK and AKT activation in presence of TAE684 ([5]; H3122 cells, TAE684 1 μM, HGF 50 ng/mL, 2 h): promotes ERK and AKT activation
- re-activation of MAPK signalling (pERK) in BRAF mutant cell lines ([5]; PLX[…] 1 μM, HGF 50 ng/mL, 2 h, MET positive versus MET negative lines): could re-activate MAPK signalling in cell lines that were rescued by HGF
- effect of HGF on longer-term erlotinib treatment [6]: rescued
